Laboratory results from ChEMBL document CHEMBL3421538, “Structure-activity relationships and molecular studies of novel arylpiperazinylalkyl purine-2,4-diones and purine-2,4,8-triones with antidepressant and anxiolytic-like activity” (Eur J Med Chem, 2015).
Active and inactive are the calls of the source. The rule behind the calls is not given here.

Tests used:
[1] = biological target: T1, 5-hydroxytryptamine receptor 7 (Homo sapiens, UniProt P34969); experiment: Displacement of [3H]LSD from human recombinant 5-HT7 receptor expressed in CHOK1 cells incubated for 60 mins by microbeta plate reader based method; assay type: cell-based, CHO-K1
T1 sequence (P34969 whole entry): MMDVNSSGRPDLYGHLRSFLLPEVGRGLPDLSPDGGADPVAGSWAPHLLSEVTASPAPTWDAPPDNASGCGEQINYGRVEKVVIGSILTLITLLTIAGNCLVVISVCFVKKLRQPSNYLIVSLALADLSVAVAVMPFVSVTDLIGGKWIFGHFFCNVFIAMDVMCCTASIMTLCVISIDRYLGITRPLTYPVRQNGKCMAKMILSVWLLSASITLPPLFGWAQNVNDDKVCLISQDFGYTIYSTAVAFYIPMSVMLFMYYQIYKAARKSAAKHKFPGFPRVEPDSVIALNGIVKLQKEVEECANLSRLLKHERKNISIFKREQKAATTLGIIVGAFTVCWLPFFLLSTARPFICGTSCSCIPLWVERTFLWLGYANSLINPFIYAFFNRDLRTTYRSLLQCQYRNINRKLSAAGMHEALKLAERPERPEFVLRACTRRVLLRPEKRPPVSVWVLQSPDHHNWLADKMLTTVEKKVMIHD

[2] = biological target: T2, D(2) dopamine receptor (Homo sapiens, UniProt P14416); experiment: Displacement of [3H]N-methylspiperone from human recombinant dopamine D2 receptor expressed in CHOK1 cells incubated for 60 mins by microbeta plate reader based method; assay type: cell-based, CHO-K1
T2 sequence (P14416 whole entry): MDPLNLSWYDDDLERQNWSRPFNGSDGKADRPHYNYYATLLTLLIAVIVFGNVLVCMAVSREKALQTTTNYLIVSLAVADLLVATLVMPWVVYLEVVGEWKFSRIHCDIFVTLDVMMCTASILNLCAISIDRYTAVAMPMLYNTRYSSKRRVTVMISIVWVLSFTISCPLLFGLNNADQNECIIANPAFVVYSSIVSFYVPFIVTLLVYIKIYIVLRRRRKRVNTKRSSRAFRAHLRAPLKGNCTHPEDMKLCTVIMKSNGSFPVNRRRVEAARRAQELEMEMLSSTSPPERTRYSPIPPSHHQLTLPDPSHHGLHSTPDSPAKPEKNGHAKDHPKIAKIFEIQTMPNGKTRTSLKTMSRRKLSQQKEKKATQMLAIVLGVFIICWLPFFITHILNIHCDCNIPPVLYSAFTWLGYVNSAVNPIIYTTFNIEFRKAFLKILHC

[3] = Selectivity index, ratio of Ki for rat hippocampus 5-HT1A receptor to Ki for human recombinant 5-HT7 receptor
[4] = biological target: T3, 5-hydroxytryptamine receptor 1A (Homo sapiens) (UniProt P08908); experiment: Agonist activity at human 5-HT1A receptor expressed in HEK293 cells assessed as stimulation of cAMP levels at 1 uM relative to 8-OH-DPAT; assay type: functional, cell-based
T3 sequence (whole entry): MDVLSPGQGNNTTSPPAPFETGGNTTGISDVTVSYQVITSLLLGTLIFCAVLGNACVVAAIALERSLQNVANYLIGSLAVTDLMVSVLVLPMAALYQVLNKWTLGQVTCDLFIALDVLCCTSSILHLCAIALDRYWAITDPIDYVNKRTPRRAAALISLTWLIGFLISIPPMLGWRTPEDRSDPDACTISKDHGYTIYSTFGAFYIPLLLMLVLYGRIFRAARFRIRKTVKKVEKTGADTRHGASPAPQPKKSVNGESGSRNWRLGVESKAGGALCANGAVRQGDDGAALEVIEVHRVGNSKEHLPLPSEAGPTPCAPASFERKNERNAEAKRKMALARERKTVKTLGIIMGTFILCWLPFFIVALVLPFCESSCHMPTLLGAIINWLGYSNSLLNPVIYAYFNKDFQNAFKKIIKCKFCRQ

[5] = biological target: T3, 5-hydroxytryptamine receptor 1A (Homo sapiens); experiment: Agonist activity at human 5-HT1A receptor expressed in HEK293 cells assessed as stimulation of cAMP levels at 0.1 uM relative to 8-OH-DPAT; assay type: functional, cell-based
[6] = biological target: T1, 5-hydroxytryptamine receptor 7; experiment: Agonist activity at human 5-HT7 receptor expressed in HEK293 cells assessed as stimulation of cAMP levels at 1 uM relative to 5HT; assay type: functional, cell-based
[7] = biological target: T1, 5-hydroxytryptamine receptor 7; experiment: Agonist activity at human 5-HT7 receptor expressed in HEK293 cells assessed as stimulation of cAMP levels at 0.1 uM relative to 5HT; assay type: functional, cell-based
[8] = biological target: T2, D(2) dopamine receptor; experiment: Agonist activity at human D2L receptor expressed in HEK293 cells assessed as stimulation of cAMP levels at 1 uM relative to dopamine; assay type: functional, cell-based
[9] = biological target: T2, D(2) dopamine receptor; experiment: Agonist activity at human D2L receptor expressed in HEK293 cells assessed as stimulation of cAMP levels at 0.1 uM relative to dopamine; assay type: functional, cell-based
[10] = biological target: T3, 5-hydroxytryptamine receptor 1A (Homo sapiens); experiment: Antagonist activity against human 5-HT1A receptor expressed in HEK293 cells assessed as inhibition of […]-induced cAMP levels at 1 uM; assay type: functional, cell-based
[11] = biological target: T3, 5-hydroxytryptamine receptor 1A (Homo sapiens); experiment: Antagonist activity against human 5-HT1A receptor expressed in HEK293 cells assessed as inhibition of […]-induced cAMP levels at 0.1 uM; assay type: functional, cell-based
[12] = biological target: T1, 5-hydroxytryptamine receptor 7; experiment: Antagonist activity against human 5-HT7 receptor expressed in HEK293 cells assessed as inhibition of 5-HT-induced cAMP levels at 1 uM; assay type: functional, cell-based
[13] = biological target: T1, 5-hydroxytryptamine receptor 7; experiment: Antagonist activity against human 5-HT7 receptor expressed in HEK293 cells assessed as inhibition of 5-HT-induced cAMP levels at 0.1 uM; assay type: functional, cell-based
[14] = biological target: T2, D(2) dopamine receptor; experiment: Antagonist activity against human dopamine D2L receptor expressed in HEK293 cells assessed as inhibition of […]-induced cAMP levels at 1 uM; assay type: functional, cell-based
[15] = biological target: T2, D(2) dopamine receptor; experiment: Antagonist activity against human dopamine D2L receptor expressed in HEK293 cells assessed as inhibition of […]-induced cAMP levels at 0.1 uM; assay type: functional, cell-based
[16] = test system: Mus musculus; experiment: Antidepressant-like activity in Swiss mouse assessed as reduction in immobility time at 2.5 to 20 mg/kg, ip administered 60 mins before test; assay type: functional, organism-based
[17] = test system: Mus musculus; experiment: Antidepressant-like activity in Swiss mouse assessed as reduction in immobility time at 10 mg/kg, ip administered 60 mins before test; assay type: functional; parameters: scale not given: the % may be the effect or the level left; conditions: route intraperitoneal
[18] = test system: Mus musculus; experiment: Toxicity in Swiss mouse assessed as spontaneous locomotor activity at 2.5 to 20 mg/kg, ip measured during 2 to 6 mins; assay type: organism-based; parameters: route intraperitoneal; conditions: in vivo
[19] = test system: Mus musculus; experiment: Anxiolytic-like activity in Swiss mouse assessed as increase in number of punished crossings measured during 60 seconds period at 5 to 20 mg/kg, ip by four-plate test; assay type: functional, organism-based
[20] = biological target: T4, 5-hydroxytryptamine receptor 1A (Rattus norvegicus) (UniProt P19327); experiment: Displacement of [3H]8-OH-DPAT from rat hippocampus 5-HT1A receptor assessed as total radioligand binding at 1 uM incubated for 20 mins by microbeta plate reader based method
T4 sequence (whole entry): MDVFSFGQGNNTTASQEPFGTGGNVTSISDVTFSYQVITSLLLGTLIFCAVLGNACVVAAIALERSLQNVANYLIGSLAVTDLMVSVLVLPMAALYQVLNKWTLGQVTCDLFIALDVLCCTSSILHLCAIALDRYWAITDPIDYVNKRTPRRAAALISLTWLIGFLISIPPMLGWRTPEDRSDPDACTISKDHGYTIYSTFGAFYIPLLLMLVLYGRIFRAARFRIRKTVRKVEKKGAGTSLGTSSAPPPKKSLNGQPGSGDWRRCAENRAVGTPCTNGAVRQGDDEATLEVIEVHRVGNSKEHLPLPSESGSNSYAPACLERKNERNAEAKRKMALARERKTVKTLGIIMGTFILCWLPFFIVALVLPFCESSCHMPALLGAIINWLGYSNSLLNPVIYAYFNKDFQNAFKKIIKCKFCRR

[21] = biological target: T4, 5-hydroxytryptamine receptor 1A (Rattus norvegicus); experiment: Displacement of [3H]8-OH-DPAT from rat hippocampus 5-HT1A receptor assessed as total radioligand binding at 1.66 x 10^-7 M incubated for 20 mins by microbeta plate reader based method
[22] = biological target: T5, 5-hydroxytryptamine receptor 6 (Homo sapiens, UniProt P50406); experiment: Displacement of [3H]LSD from human recombinant 5-HT6 receptor expressed in HEK293 cells assessed as total radioligand binding at 1 uM incubated for 60 mins by microbeta plate reader based method; assay type: cell-based
T5 sequence (P50406 whole entry): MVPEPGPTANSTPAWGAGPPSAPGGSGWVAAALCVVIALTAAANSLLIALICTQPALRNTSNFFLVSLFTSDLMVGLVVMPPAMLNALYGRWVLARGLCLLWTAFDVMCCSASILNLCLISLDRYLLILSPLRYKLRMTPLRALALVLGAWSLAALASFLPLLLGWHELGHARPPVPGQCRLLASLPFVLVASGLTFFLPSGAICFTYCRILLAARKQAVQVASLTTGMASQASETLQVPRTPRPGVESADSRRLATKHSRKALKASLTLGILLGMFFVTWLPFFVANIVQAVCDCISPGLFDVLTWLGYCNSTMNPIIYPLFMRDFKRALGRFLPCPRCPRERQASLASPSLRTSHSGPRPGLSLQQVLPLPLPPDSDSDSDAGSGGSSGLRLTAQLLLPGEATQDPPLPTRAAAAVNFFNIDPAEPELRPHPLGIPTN

[23] = biological target: T5, 5-hydroxytryptamine receptor 6; experiment: Displacement of [3H]LSD from human recombinant 5-HT6 receptor expressed in HEK293 cells assessed as total radioligand binding at 1.66 x 10^-7 M incubated for 60 mins by microbeta plate reader based method; assay type: cell-based
[24] = biological target: D(3) dopamine receptor (Homo sapiens) (UniProt P35462); experiment: Displacement of [3H]N-methylspiperone from dopamine D3 receptor (unknown origin) assessed as total radioligand binding at 1 uM incubated for 60 mins by microbeta plate reader based method
D(3) dopamine receptor (Homo sapiens), sequence (P35462 whole entry): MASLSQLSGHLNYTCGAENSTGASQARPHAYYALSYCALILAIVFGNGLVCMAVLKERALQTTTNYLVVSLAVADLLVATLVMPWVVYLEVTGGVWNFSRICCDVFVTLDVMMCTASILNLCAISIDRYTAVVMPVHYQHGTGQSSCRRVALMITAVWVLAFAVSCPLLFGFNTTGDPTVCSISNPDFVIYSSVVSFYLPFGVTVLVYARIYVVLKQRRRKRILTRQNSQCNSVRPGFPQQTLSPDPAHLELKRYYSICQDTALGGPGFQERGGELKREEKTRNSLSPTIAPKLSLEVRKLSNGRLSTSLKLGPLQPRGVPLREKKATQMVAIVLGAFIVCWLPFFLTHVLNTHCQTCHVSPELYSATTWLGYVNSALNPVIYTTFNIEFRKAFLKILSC

[25] = biological target: D(3) dopamine receptor (Homo sapiens) (UniProt P35462); experiment: Displacement of [3H]N-methylspiperone from dopamine D3 receptor (unknown origin) assessed as total radioligand binding at 1.66 x 10^-7 M incubated for 60 mins by microbeta plate reader based method
[26] = biological target: T6, 5-hydroxytryptamine receptor 1A (Rattus norvegicus, UniProt P19327); experiment: Displacement of [3H]8-OH-DPAT from rat hippocampus 5-HT1A receptor incubated for 20 mins by microbeta plate reader based method
T6 sequence (P19327 whole entry): T4 sequence (whole entry)

[27] = biological target: T5, 5-hydroxytryptamine receptor 6; experiment: Displacement of [3H]LSD from human recombinant 5-HT6 receptor expressed in HEK293 cells incubated for 60 mins by microbeta plate reader based method; assay type: cell-based
[28] = test system: Mus musculus; experiment: Antidepressant-like activity in Swiss mouse assessed as reduction in immobility time at 0.625 to 5 mg/kg, ip administered 60 mins before test; assay type: functional, organism-based
[29] = test system: Mus musculus; experiment: Antidepressant-like activity in Swiss mouse assessed as reduction in immobility time at 1.25 mg/kg, ip administered 60 mins before test; assay type: functional; parameters: scale not given: the % may be the effect or the level left; conditions: route intraperitoneal
[30] = test system: Mus musculus; experiment: Antidepressant-like activity in ip dosed Swiss mouse assessed as reduction in immobility time administered 60 mins before test; assay type: functional; conditions: read-out: MED
[31] = test system: Mus musculus; experiment: Potency index, ratio of MED for imipramine to MED for compound for antidepressant-like activity in ip dosed Swiss mouse; assay type: functional
[32] = test system: Mus musculus; experiment: Toxicity in Swiss mouse assessed as spontaneous locomotor activity at 0.625 to 5 mg/kg, ip measured during 2 to 6 mins; assay type: organism-based; parameters: route intraperitoneal; conditions: in vivo
[33] = test system: Mus musculus; experiment: Anxiolytic-like activity in Swiss mouse assessed as increase in number of punished crossings measured during 60 seconds period at 1.25 to 5 mg/kg, ip by four-plate test; assay type: functional, organism-based
[34] = test system: Mus musculus; experiment: Antidepressant-like activity in Swiss mouse assessed as reduction in immobility time at 1.25 to 5 mg/kg, ip administered 60 mins before test; assay type: functional, organism-based
[35] = test system: Mus musculus; experiment: Anxiolytic-like activity in Swiss mouse assessed as increase in number of punished crossings measured during 60 seconds period at 5 mg/kg, ip by four-plate test; assay type: functional; conditions: route intraperitoneal
[36] = test system: Mus musculus; experiment: Anxiolytic-like activity in Swiss mouse assessed as increase in number of punished crossings measured during 60 seconds period at 2.5 to 10 mg/kg, ip by four-plate test; assay type: functional, organism-based
[37] = test system: Mus musculus; experiment: Toxicity in Swiss mouse assessed as spontaneous locomotor activity at 2.5 to 10 mg/kg, ip; assay type: organism-based; parameters: dose 2.5-10 mg/kg, route intraperitoneal; conditions: in vivo

Compound | Ki [1] [nM] | Ki [2] [nM] | Ratio Ki [3] | Activity [4] [%] | Activity [5] [%] | Activity [6] [%] | Activity [7] [%] | Activity [8] [%] | Activity [9] [%] | inhibition [10] [%] | inhibition [11] [%] | inhibition [12] [%] | inhibition [13] [%] | inhibition [14] [%] | inhibition [15] [%] | Activity [20] [%] | Activity [21] [%] | Activity [22] [%] | Activity [23] [%] | Ki [26] [nM] | also measured
Cn1c(=O)c2c(nc3n(CCCCN4CCN(c5ccccc5O)CC4)c(-c4ccccc4)cn23)n(C)c1=O | 30 | 4 | 0.2 | 37.4 | 23.4 | -2.2 | 4.5 | 28 | 19.2 | 104 | 82.4 | 64.3 | 7.7 | 77.8 | 45 | 7 | 42 | 37 | 69 | 6 | Activity [16]: Active; Activity [17]: 17%; Activity [18]: Non-toxic; Activity [19]: inactive; Activity [24]: 39%; Activity [25]: 81%
Cn1c(=O)c2c(nc3n(CCCCCN4CCN(c5ccc(Cl)cc5)CC4)c(-c4ccccc4)cn23)n(C)c1=O | 122 | 9 | 0.7 | 2.3 | -7 | 9.1 | 1.9 | 7.7 | 3.1 | 34.7 | 71.8 | 22.1 | -8.4 | 75.6 | 16.5 | – | – | – | – | 93 | Ki [27]: 45 nM; Activity [28]: Active; Activity [29]: 40%; minimal effective dose [30]: 1.25 mg/kg; Ratio [31]: 4; Activity [32]: Non-toxic; Activity [33]: inactive
Cn1c(=O)c2c(nc3n(CCCCCN4CCN(c5ccccc5O)CC4)c(-c4ccccc4)cn23)n(C)c1=O | 43 | 24 | 0.2 | 32.5 | 22.9 | 5.3 | 5.1 | 7.7 | 12.3 | 91.8 | 68.3 | 58.9 | 11 | 71.2 | 12.2 | 9 | 47 | 60 | 87 | 9 | Activity [34]: inactive; Activity [35]: 90%; Activity [36]: Active; Activity [37]: Non-toxic; Activity [24]: 39%; Activity [25]: 81%
